According to ChEMBL document CHEMBL1201862, “PubChem BioAssay data set” (2004):
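Protocol summary: plate cells (96-well), add compound at 5 concentrations, incubate 48 h, interpolate endpoints linearly. The concentration for 50% growth inhibition is given as GI50.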 The source made the active and inactive calls. Rule as the data show it: active = GI50 up to about 1.1 µM and inactive = higher.

How the values were obtained:
Experiment in all cases: NCI tumour cell line growth inhibition, 48 h
Malme-3M = system: Malme-3M
U-251 = system: U-251
ACHN = system: ACHN
DU-145 = system: DU-145
IGROV-1 = system: IGROV-1
786-0 = system: 786-0
T47D = system: T47D
RPMI-8226 = system: RPMI-8226
Hs-578T = system: Hs-578T
A549 = system: A549
SR = system: SR
SW-620 = system: SW-620
CAKI-1 = system: CAKI-1
A498 = system: A498
SK-OV-3 = system: SK-OV-3
SN12C = system: SN12C
K562 = system: K562
MOLT-4 = system: MOLT-4
HCT-15 = system: HCT-15
OVCAR-3 = system: OVCAR-3
HOP-92 = system: HOP-92
LOX IMVI = system: LOX IMVI
HT-29 = system: HT-29
BT-549 = system: BT-549
OVCAR-4 = system: OVCAR-4
SNB-19 = system: SNB-19
MCF7 = system: MCF7
NCI-H522 = system: NCI-H522
MDA-MB-231 = system: MDA-MB-231
SK-MEL-28 = system: SK-MEL-28
NCI/ADR-RES = system: NCI/ADR-RES
KM12 = system: KM12
SF-539 = system: SF-539
SK-MEL-2 = system: SK-MEL-2
SK-MEL-5 = system: SK-MEL-5
M14 = system: M14
NCI-H23 = system: NCI-H23
MDA-N = system: MDA-N
UACC-62 = system: UACC-62
PC-3 = system: PC-3
UACC-257 = system: UACC-257
MDA-MB-435 = system: MDA-MB-435
OVCAR-8 = system: OVCAR-8
UO-31 = system: UO-31
SF-268 = system: SF-268
HOP-62 = system: HOP-62
EKVX = system: EKVX
HCT-116 = system: HCT-116
HL-60 = system: HL-60
SF-295 = system: SF-295
COLO 205 = system: COLO 205
RXF 393 = system: RXF 393
TK-10 = system: TK-10
NCI-H226 = system: NCI-H226
OVCAR-5 = system: OVCAR-5
CCRF-CEM = system: CCRF-CEM
SNB-75 = system: SNB-75
NCI-H460 = system: NCI-H460
HCC 2998 = system: HCC 2998

Measured: GI50

O=C1N2CCc3c([nH]c4ccccc34)C23CC2CCCCC12S3 (stereo not given)
> 100 µM: HCT-15
inactive: Malme-3M > 100 µM | U-251 > 100 µM | ACHN > 100 µM | DU-145 > 100 µM | IGROV-1 > 100 µM | 786-0 > 100 µM | T47D > 100 µM | RPMI-8226 48.8 µM | Hs-578T > 100 µM | A549 > 100 µM | SR 34.5 µM | SW-620 > 100 µM | CAKI-1 > 100 µM | A498 > 100 µM | SK-OV-3 > 100 µM | SN12C > 100 µM | K562 34.6 µM | MOLT-4 24.7 µM | OVCAR-3 > 100 µM | HOP-92 > 100 µM | LOX IMVI > 100 µM | HT-29 > 100 µM | BT-549 > 100 µM | OVCAR-4 > 100 µM | SNB-19 > 100 µM | MCF7 39.4 µM | NCI-H522 > 100 µM | MDA-MB-231 > 100 µM | SK-MEL-28 > 100 µM | NCI/ADR-RES > 100 µM | KM12 > 100 µM | SF-539 > 100 µM | SK-MEL-5 63.5 µM | M14 > 100 µM | NCI-H23 > 100 µM | MDA-N > 100 µM | UACC-62 > 100 µM | PC-3 > 100 µM | UACC-257 18.5 µM | MDA-MB-435 > 100 µM | OVCAR-8 > 100 µM | UO-31 > 100 µM | SF-268 > 100 µM | HOP-62 > 100 µM | EKVX > 100 µM | HCT-116 > 100 µM | HL-60 95.5 µM | SF-295 > 100 µM | COLO 205 > 100 µM | RXF 393 > 100 µM | TK-10 28.3 µM | NCI-H226 > 100 µM | OVCAR-5 > 100 µM
active: SK-MEL-2 < 0.01 µM

COc1nc2ncc([C@@H](O)[C@H](O)CO)nc2c(=O)[nH]1
inactive: Malme-3M > 100 µM | U-251 > 100 µM | ACHN > 100 µM | DU-145 > 100 µM | IGROV-1 > 100 µM | 786-0 > 100 µM | CCRF-CEM > 100 µM | T47D > 100 µM | RPMI-8226 > 100 µM | Hs-578T > 100 µM | A549 > 100 µM | SR > 100 µM | SW-620 > 100 µM | CAKI-1 > 100 µM | SNB-75 > 100 µM | A498 > 100 µM | SK-OV-3 > 100 µM | SN12C > 100 µM | K562 > 100 µM | MOLT-4 > 100 µM | OVCAR-3 > 100 µM | HOP-92 > 100 µM | LOX IMVI > 100 µM | HT-29 > 100 µM | BT-549 99.1 µM | NCI-H460 > 100 µM | OVCAR-4 > 100 µM | SNB-19 > 100 µM | MCF7 > 100 µM | NCI-H522 > 100 µM | MDA-MB-231 > 100 µM | SK-MEL-28 > 100 µM | NCI/ADR-RES > 100 µM | KM12 > 100 µM | SF-539 > 100 µM | SK-MEL-2 > 100 µM | SK-MEL-5 > 100 µM | M14 > 100 µM | MDA-N > 100 µM | UACC-62 > 100 µM | PC-3 > 100 µM | UACC-257 > 100 µM | MDA-MB-435 > 100 µM | OVCAR-8 > 100 µM | UO-31 > 100 µM | SF-268 > 100 µM | HOP-62 > 100 µM | EKVX > 100 µM | HCT-116 > 100 µM | HL-60 63.2 µM | SF-295 > 100 µM | COLO 205 > 100 µM | RXF 393 > 100 µM | TK-10 > 100 µM | NCI-H226 > 100 µM | OVCAR-5 > 100 µM
> 100 µM: HCT-15

CN(C)CCOc1ccc2[nH]c(C(=O)N3CC(CCl)c4c3cc(N)c3ccccc43)cc2c1 (stereo not given)
< 0.01 µM: HCT-15
active: Malme-3M < 0.01 µM | U-251 < 0.01 µM | ACHN < 0.01 µM | DU-145 < 0.01 µM | IGROV-1 < 0.01 µM | 786-0 < 0.01 µM | CCRF-CEM < 0.01 µM | T47D < 0.01 µM | RPMI-8226 < 0.01 µM | Hs-578T < 0.01 µM | A549 < 0.01 µM | SR < 0.01 µM | SW-620 < 0.01 µM | CAKI-1 < 0.01 µM | SNB-75 < 0.01 µM | A498 < 0.01 µM | SK-OV-3 < 0.01 µM | SN12C < 0.01 µM | K562 < 0.01 µM | MOLT-4 < 0.01 µM | OVCAR-3 < 0.01 µM | HOP-92 < 0.01 µM | LOX IMVI < 0.01 µM | HT-29 < 0.01 µM | HCC 2998 < 0.01 µM | BT-549 < 0.01 µM | NCI-H460 < 0.01 µM | OVCAR-4 < 0.01 µM | SNB-19 < 0.01 µM | MCF7 < 0.01 µM | NCI-H522 < 0.01 µM | MDA-MB-231 < 0.01 µM | SK-MEL-28 < 0.01 µM | NCI/ADR-RES < 0.01 µM | KM12 < 0.01 µM | SF-539 < 0.01 µM | SK-MEL-2 < 0.01 µM | SK-MEL-5 < 0.01 µM | M14 < 0.01 µM | NCI-H23 < 0.01 µM | MDA-N < 0.01 µM | UACC-62 < 0.01 µM | PC-3 < 0.01 µM | UACC-257 < 0.01 µM | MDA-MB-435 < 0.01 µM | OVCAR-8 < 0.01 µM | UO-31 < 0.01 µM | SF-268 < 0.01 µM | HOP-62 < 0.01 µM | EKVX < 0.01 µM | HCT-116 < 0.01 µM | HL-60 < 0.01 µM | SF-295 < 0.01 µM | COLO 205 < 0.01 µM | TK-10 < 0.01 µM | NCI-H226 < 0.01 µM | OVCAR-5 < 0.01 µM
